# From US20120195959A1, “METHOD FOR TREATING DISEASE OR DISORDER OF ADULT CENTRAL NERVOUS SYSTEM ASSOCIATED WITH TISSUE SHRINKAGE OR ATROPHY BY ADMINISTRATION OF INSULIN” (priority 2005, published 2012)
# Entries after “also recorded” stand apart in the source; their conditions may differ.
# How the values were obtained:
# [1] = tested on: diabetic rats; test: Brain atrophy in streptozotocin-diabetic rats, insulin infused into brain lateral ventricles; format: in vivo, rat; settings: 0.3 U insulin per kg body weight per day into brain lateral ventricles for 10 weeks; D+Insulin vs D+aCSF P<0.02; N=7 rats per group
# Protocol: (§1) Adult rats were randomly assigned to treatment groups, some of which were treated with streptozotocin to induce diabetes. Alzet osmotic minipumps (pump rate, 0.5 μl per hour) were connected to catheters that delivered either artificial cerebrospinal fluid (D+aCSF) or 0.3 U insulin per kg body weight per day (D+Insulin) into the brain lateral ventricles of diabetic rats for 10 weeks. Pumps were replaced every two weeks. Brains were removed and the wet weight determined. The brains were homogenized in a buffer, and aliquots were taken to determine dry weight. The water weight was calculated as the difference between brain wet and dry weights. The results are shown in FIGS. 1A-1C, wherein the values are means±SEM (N=7 rats per group). Newman-Keuls posthoc test of means was calculated using CSS Statistica software package.
# [2] = tested on: diabetic rats; test: Serum glucose and body weight in the same experiment at 10 weeks; format: in vivo, rat; settings: 0.3 U insulin per kg per day intracerebroventricular
# Protocol: as §1
# In the same experiment described in FIGS. 1A-1C, rats were weighed and tail blood was withdrawn for glucose assay prior to euthanasia at 10 weeks. Values are means±SEM. Newman-Keuls posthoc test of means was calculated using CSS Statistica software package.
# [3] = tested on: patients; settings: insulin infusion, glucose levels kept constant in patients; cited from earlier work
substance,measurement,setting,value
insulin,"brain atrophy, loss of brain wet and dry weights",[1],prevented brain atrophy; also recorded: completely normalized brain weight
same,loss of body weight,[2]; D+Insulin vs D+aCSF P<0.02,partially prevented loss of body weights
same,hyperglycemia (serum glucose levels),[2]; D+Insulin vs D+aCSF nonsignificant,no effect on hyperglycemia
same,number of different genes whose expression is regulated in a muscle biopsy,[3],over 700
